{"source": "patent US10828272B2", "about": "“Means to facilitate food intake and food retention” (Chardon Group B.V., priority 2012, dated 2020)", "test_system": "Wistar rats", "test": "Food intake test (30 min, living mealworms) in non-deprived rats", "assay_type": "in vivo, rat", "conditions": "for Dose needed for effect on food intake in this procedure (conclusion): into esophagus", "excerpt": "In the following examples food intake tests were run with cohorts of 32 Wistar rats having food intake sessions in two groups of 16 rats in parallel. There were 8 rats per experimental group. The rats weighed in the range of 260-370 grams. Rats were acclimatized to the housing conditions in our laboratory for at least one week after arrival from the breeder. The rats were housed in pairs in Macrolon cages of 42×26 cm and 15 cm high, with standard food and water available ad libitum. The day-night cycle was not reversed (lights on at 7:00 AM, off 19:00 PM). Food intake tests were run in the same room wherein the rats were housed in the light period of the diurnal cycle of the rats. In a further period the rats were habituated to human handling and to the manner of presentation of mealworms in the food intake tests. Food intake was measured with rats without food deprivation. Food intake tests were done by placing the rats from their home cage individually into clean Macrolon (42×26×15 cm) cages without bedding. A weighed amount of at least 15-20 g living mealworms in a petri dish was placed in the middle of the cage and rats were allowed 30 minutes for eating mealworms. During the 30 minute test for food intake no drinking water was available. Injection treatments were administered at determined times before the food intake test. After drug administration the rats were returned to their home cage. Both rats of a pair in a living cage were assigned to the same treatment groups. Otherwise allocation of rats to experimental groups was done such that the treatments were equally and randomly spread over the duration of an experiment. The experimenter remained in the test room for the duration of an experiment. This allowed observation of general behavioural effects of the treatments. Abnormalities were recorded.\nFor drug administration commercially available stock solutions in vials were used: • lidocainehydrochloride 20 mg/ml injection fluid (Fresenius Kabi); procainamidehydrochloride 100 mg/ml injection fluid (Apotheek Haagse Ziekenhuizen); • ropivacainehydrochloride 7.5 mg/ml injection fluid (Fresenius Kabi); • metoclopramine (Sigma) was weighed and dissolved for use.\nDrugs were administered in volumes of 1 ml/kg rat.\nVehicle: for local anesthetics the commercial physiological saline solutions for injection were used directly or the solution was diluted with distilled water. Alginate for a 2% viscous alginate solution was added 18 hours before use of the solution for injection. The solution was prepared to a viscous solution by allowing 18 hours of slow mechanical mixing.\nFor administration of the drug into the lumen of the esophagus the injection fluid was administered by entering a thick needle with rounded tip via, and into the esophagus just above the lower esophageal sphincter and retreating during injection to release the volume to be injected just behind the pharynx.\nFor administration into the stomach a similar 1 mm thick needle with a 2 mm tip and 60 mm length was introduced into the stomach via the esophagus as customary for oral administration in rats.\nFor administration subcutaneously (sc) the injection fluid was injected with a sharp thin needle under the skin in the neck.", "note": "Where a name gives a salt, the structure may show the parent alone."}
{"smiles": "CCN(CC)CC(=O)Nc1c(C)cccc1C", "note": "[Lidocaine•HCl, lidocainehydrochloride]", "values": [{"measurement": "Grams of mealworms eaten (AVG)", "setting": "Example 1, 1 mg/kg into esophagus, 30 minutes before test", "result": 14.85, "unit": "grams"}, {"measurement": "Grams of mealworms eaten (AVG)", "setting": "Example 1, 3 mg/kg into esophagus, 30 minutes before test", "result": 14.46, "unit": "grams"}, {"measurement": "Grams of mealworms eaten (AVG)", "setting": "Example 1, 10 mg/kg into esophagus, 30 minutes before test", "result": 14.54, "unit": "grams"}, {"measurement": "Grams of mealworms eaten (AVG)", "setting": "Example 2, 20 mg/kg esophagus, 15 minutes before test", "result": 16.91, "unit": "grams"}, {"measurement": "Grams of mealworms eaten (AVG)", "setting": "Example 2, 20 mg/kg esophagus, 30 minutes before test", "result": 17.14, "unit": "grams"}, {"measurement": "Grams of mealworms eaten (AVG)", "setting": "Example 2, 20 mg/kg stomach, 30 minutes before test", "result": 16.28, "unit": "grams"}, {"measurement": "Effect on food intake, esophagus compared with stomach (conclusion)", "setting": "Example 2, 20 mg/kg, application in the esophagus versus into the stomach", "result": "more effective"}, {"measurement": "Effect on food intake (conclusion)", "setting": "Example 2, dose of 20 mg/kg", "result": "effective"}, {"measurement": "Dose needed for effect on food intake in this procedure (conclusion)", "setting": "30 minutes before test", "result": "above 10 mg/kg"}]}
{"smiles": "CCN(CC)CCNC(=O)c1ccc(N)cc1", "note": "[Procainamide, procainamidehydrochloride]", "values": [{"measurement": "Grams of mealworms eaten (AVG)", "setting": "Example 3, 20 m/kg esophagus, 30 minutes before test", "result": 12.11, "unit": "grams"}, {"measurement": "Grams of mealworms eaten (AVG)", "setting": "Example 4, 100 m/kg esophagus, 30 minutes before test", "result": 10.55, "unit": "grams"}, {"measurement": "Dose needed for effect on food intake in this procedure (conclusion)", "setting": "30 minutes before test", "result": "higher than 20 mg/kg"}]}
{"smiles": "CCCN1CCCC[C@H]1C(=O)Nc1c(C)cccc1C.Cl", "note": "[Ropivacaine, ropivacainehydrochloride]", "values": [{"measurement": "Grams of mealworms eaten (AVG)", "setting": "Example 3, 1.25 mg/kg esophagus, 30 minutes before test", "result": 13.40, "unit": "grams"}, {"measurement": "Grams of mealworms eaten (AVG)", "setting": "Example 4, 3.75 mg/kg esophagus, 30 minutes before test", "result": 12.08, "unit": "grams"}, {"measurement": "Grams of mealworms eaten (AVG)", "setting": "Example 4, 7.5 mg/kg esophagus, 30 minutes before test", "result": 13.58, "unit": "grams"}, {"measurement": "Effect on food intake (conclusion)", "setting": "Example 4, 7.5 mg/kg in the esophagus", "result": "enhanced food intake"}, {"measurement": "Effect on meal size (conclusion)", "setting": "Example 5, 7.5 mg/kg and 11.25 mg/kg in the esophagus", "result": "effective in increasing meal size"}, {"measurement": "Grams of mealworms eaten (AVG)", "setting": "Example 5, 7.5 mg/kg esophagus", "result": 13.24, "unit": "grams"}, {"measurement": "Grams of mealworms eaten (AVG)", "setting": "Example 5, 7.5 mg/kg stomach", "result": 10.72, "unit": "grams"}, {"measurement": "Grams of mealworms eaten (AVG)", "setting": "Example 5, 11.25 mg/kg esophagus", "result": 14.44, "unit": "grams"}, {"measurement": "Dose needed for effect on food intake in this procedure (conclusion)", "setting": "30 minutes before test", "result": "higher than 1.25 mg/kg"}]}
{"smiles": "CCN(CC)CCNC(=O)c1cc(Cl)c(N)cc1OC", "note": "[metoclopramide]", "values": [{"measurement": "Grams of mealworms eaten (AVG)", "setting": "Example 6, 3 mg/kg sc, 30 minutes before test", "result": 11.86, "unit": "grams"}, {"measurement": "Grams of mealworms eaten (AVG)", "setting": "Example 6, 10 mg/kg sc, 30 minutes before test", "result": 1.25, "unit": "grams"}, {"measurement": "Grams of mealworms eaten (AVG)", "setting": "Example 6, 30 mg/kg sc, 30 minutes before test", "result": 0.22, "unit": "grams"}, {"measurement": "Effect on food intake (conclusion)", "setting": "Example 6, subcutaneously at doses above 3 mg/kg", "result": "inhibits food intake"}, {"measurement": "Grams of mealworms eaten (AVG)", "setting": "Example 7, 0.1 mg/kg sc, 30 minutes before test", "result": 13.51, "unit": "grams"}, {"measurement": "Grams of mealworms eaten (AVG)", "setting": "Example 7, 0.3 mg/kg sc, 30 minutes before test", "result": 12.23, "unit": "grams"}, {"measurement": "Grams of mealworms eaten (AVG)", "setting": "Example 7, 1 mg/kg sc, 30 minutes before test", "result": 15.76, "unit": "grams"}, {"measurement": "Effect on food intake (conclusion)", "setting": "Example 7, 0.1 and 0.3 mg/kg subcutaneously", "result": "ineffective"}, {"measurement": "Effect on food intake (conclusion)", "setting": "Example 7, subcutaneous injection of 1 mg/kg", "result": "increases food intake"}]}
